These results are taken from US12319676B2, “Substituted amide compounds useful as farnesoid X receptor modulators” (BRISTOL-MYERS SQUIBB COMPANY, priority 2019, dated 2025).

pEC50: −log10 of the molar value.

By pEC50 is commonly meant the negative decadic logarithm of the EC50, by convention in mol/L. Read a low pEC50 as a high EC50.

In the assay the target is T1, human FXR (Homo sapiens, UniProt Q96RI1).
T1 construct: expressed in transfected cells; host or cells: HEK293 cells stably carrying a 5xGal4 response element-luciferase reporter, transiently transfected with pcDNA3.1-Gal4-FXR
T1 sequence (Q96RI1 262-486 limits assumed): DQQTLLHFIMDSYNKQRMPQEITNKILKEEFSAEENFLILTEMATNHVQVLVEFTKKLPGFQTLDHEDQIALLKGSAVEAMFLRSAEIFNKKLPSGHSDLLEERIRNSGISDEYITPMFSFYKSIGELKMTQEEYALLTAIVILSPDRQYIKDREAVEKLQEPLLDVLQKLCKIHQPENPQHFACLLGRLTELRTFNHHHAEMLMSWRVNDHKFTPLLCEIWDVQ
The experiment in a line: transient human FXR/Gal4-luciferase reporter assay. It counts as cell-based. Particulars: Gal4-hFXR fusion construct, luciferase reporter in HEK293 cells; overnight incubation; response as percentage of 8 μM GW-4064 control. Put shortly:
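HEK293 cells stably carrying a 5×Gal4-response-element firefly luciferase reporter were transiently transfected with a Gal4 DBD-human FXR LBD fusion, then treated overnight with compounds at 37 °C. Steady-Glo luminescence, minus DMSO background, was expressed as percent of the response to 8 μM GW-4064.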
Background: A reporter such as luciferase makes a cellular process visible.
Take `COc1cccc(N(CC23CCC(c4noc(C(C)(F)F)n4)(CC2)CC3)C(=O)C23CC(F)(C2)C3)c1` [Example 129, N-((4-(5-(1,1-difluoroethyl)-1,2,4-oxadiazol-3-yl)bicyclo[2.2.2]octan-1-yl)methyl)-3-fluoro-N-(3-methoxyphenyl)bicyclo[1.1.1]pentane-1-carboxamide]: the pEC50 is 7.14.
The same measure for `CCOc1cccc(N(CC23CCC(c4noc(C(C)(F)F)n4)(CC2)CC3)C(=O)C23CC(F)(C2)C3)c1` [Example 130, N-((4-(5-(1,1-difluoroethyl)-1,2,4-oxadiazol-3-yl)bicyclo[2.2.2]octan-1-yl)methyl)-N-(3-ethoxyphenyl)-3-fluorobicyclo[1.1.1]pentane-1-carboxamide]: 7.04; for `CC(F)(F)c1nc(C23CCC(CN(C(=O)NC[C@H](F)C(C)(C)O)c4cccc(Br)c4)(CC2)CC3)no1` [Example 131, (S)-1-(3-bromophenyl)-1-((4-(5-(1,1-difluoroethyl)-1,2,4-oxadiazol-3-yl)bicyclo[2.2.2]octan-1-yl)methyl)-3-(2-fluoro-3-hydroxy-3-methylbutyl)urea]: 6.64.
For `CC(C)(C)c1noc(C23CCC(CN(C(=O)C45CC(F)(C4)C5)c4cccc(Br)c4)(CC2)C3)n1` [Example 132, N-(3-bromophenyl)-N-((4-(3-(tert-butyl)-1,2,4-oxadiazol-5-yl)bicyclo[2.2.1]heptan-1-yl)methyl)-3-fluorobicyclo[1.1.1]pentane-1-carboxamide], the pEC50 was 6.30. This pEC50 lies 0.34 log units lower than the previous one.
For the compound `CC(C)(C)c1noc(C23CCC(CN(c4cccc(Br)c4)C(=O)[C@H]4C[C@](O)(C(F)(F)F)C4)(CC2)C3)n1` [Example 133, (1s, 3s)-N-(3-bromophenyl)-N-((4-(3-(tert-butyl)-1,2,4-oxadiazol-5-yl)bicyclo[2.2.1]heptan-1-yl)methyl)-3-hydroxy-3-(trifluoromethyl) cyclobutane-1-carboxamide], the negative logarithm of the EC50 (pEC50) is 5.40. This pEC50 is 0.90 log units lower than that of the compound before.
The same measure for `CC(C)(F)c1nc(C23CCC(CN(C(=O)C45CC(C(C)(C)O)(C4)C5)c4cccc(Br)c4)(CC2)CC3)no1` [Example 134, N-(3-bromophenyl)-N-((4-(5-(2-fluoropropan-2-yl)-1,2,4-oxadiazol-3-yl)bicyclo[2.2.2]octan-1-yl)methyl)-3-(2-hydroxypropan-2-yl)bicyclo[1.1.1]pentane-1-carboxamide]: 6.36; for `CC(F)(F)c1nc(C23CCC(CN(C(=O)C45CC(F)(C4)C5)c4cc(F)cc(C#N)c4)(CC2)CC3)no1` [Example 135, N-(3-cyano-5-fluorophenyl)-N-((4-(5-(1,1-difluoroethyl)-1,2,4-oxadiazol-3-yl)bicyclo[2.2.2]octan-1-yl)methyl)-3-fluorobicyclo[1.1.1]pentane-1-carboxamide]: 7.74; for `CC(F)(F)c1nc(C23CCC(CN(c4cc(F)cc(C#N)c4)C(=O)[C@H]4C[C@](O)(C(F)(F)F)C4)(CC2)CC3)no1` [Example 136, (1S,3S)-N-(3-cyano-5-fluorophenyl)-N-((4-(5-(1,1-difluoroethyl)-1,2,4-oxadiazol-3-yl)bicyclo[2.2.2]octan-1-yl)methyl)-3-hydroxy-3-(trifluoromethyl)cyclobutane-1]: 6.59.
The same measure for `CC(F)(F)c1nc(C23CCC(CN(C(=O)C4CC(F)(F)C4)c4cc(F)cc(C#N)c4)(CC2)CC3)no1` [Example 137, N-(3-cyano-5-fluorophenyl)-N-((4-(5-(1,1-difluoroethyl)-1,2,4-oxadiazol-3-yl)bicyclo[2.2.2]octan-1-yl)methyl)-3,3-difluorocyclobutane-1-carboxamide]: 6.99; for `CC(F)(F)c1nc(C23CCC(CN(C(=O)C4CCS(=O)(=O)CC4)c4cc(F)cc(C#N)c4)(CC2)CC3)no1` [Example 138, N-(3-cyano-5-fluorophenyl)-N-((4-(5-(1,1-difluoroethyl)-1,2,4-oxadiazol-3-yl)bicyclo[2.2.2]octan-1-yl)methyl)tetrahydro-2H-thiopyran-4-carboxamide 1,1-dioxide]: 5.40.
In turn, `NC(=O)c1nc(C23CCC(CN(c4cccc(Br)c4)C(=O)[C@H]4C[C@](O)(C(F)(F)F)C4)(CC2)CC3)no1` [Example 139, 3-(4-(((1S,3S)—N-(3-bromophenyl)-3-hydroxy-3-(trifluoromethyl)cyclobutane-1-carboxamido)methyl)bicyclo[2.2.2]octan-1-yl)-1,2,4-oxadiazole-5-carboxamide] gave a pEC50 of 5.84.
The same measure for `NC(=O)c1nc(C23CCC(CN(C(=O)C45CC(F)(C4)C5)c4cccc(Br)c4)(CC2)CC3)no1` [Example 140, 3-(4-((N-(3-bromophenyl)-3-fluorobicyclo[1.1.1]pentane-1-carboxamido)methyl)bicyclo[2.2.2]octan-1-yl)-1,2,4-oxadiazole-5-carboxamide]: 6.14.
